Source: publication PMC9554508, “ARumenamides: A novel class of potential antiarrhythmic compounds” (Frontiers in Pharmacology, 2022)

target: T1, Nav1.5 (wild type; α-subunit co-transfected with the β1 subunit) (Homo sapiens, UniProt Q14524); test: whole-cell patch clamp, peak INa block at -20 mV, Hill fit; format: cell-based
T1 construct: gene SCN5A; full-length alpha subunit transiently co-transfected with beta1 subunit and eGFP (separate cDNAs) in HEK293; with Sodium channel regulatory subunit beta-1
T1 sequence (Q14524 whole entry): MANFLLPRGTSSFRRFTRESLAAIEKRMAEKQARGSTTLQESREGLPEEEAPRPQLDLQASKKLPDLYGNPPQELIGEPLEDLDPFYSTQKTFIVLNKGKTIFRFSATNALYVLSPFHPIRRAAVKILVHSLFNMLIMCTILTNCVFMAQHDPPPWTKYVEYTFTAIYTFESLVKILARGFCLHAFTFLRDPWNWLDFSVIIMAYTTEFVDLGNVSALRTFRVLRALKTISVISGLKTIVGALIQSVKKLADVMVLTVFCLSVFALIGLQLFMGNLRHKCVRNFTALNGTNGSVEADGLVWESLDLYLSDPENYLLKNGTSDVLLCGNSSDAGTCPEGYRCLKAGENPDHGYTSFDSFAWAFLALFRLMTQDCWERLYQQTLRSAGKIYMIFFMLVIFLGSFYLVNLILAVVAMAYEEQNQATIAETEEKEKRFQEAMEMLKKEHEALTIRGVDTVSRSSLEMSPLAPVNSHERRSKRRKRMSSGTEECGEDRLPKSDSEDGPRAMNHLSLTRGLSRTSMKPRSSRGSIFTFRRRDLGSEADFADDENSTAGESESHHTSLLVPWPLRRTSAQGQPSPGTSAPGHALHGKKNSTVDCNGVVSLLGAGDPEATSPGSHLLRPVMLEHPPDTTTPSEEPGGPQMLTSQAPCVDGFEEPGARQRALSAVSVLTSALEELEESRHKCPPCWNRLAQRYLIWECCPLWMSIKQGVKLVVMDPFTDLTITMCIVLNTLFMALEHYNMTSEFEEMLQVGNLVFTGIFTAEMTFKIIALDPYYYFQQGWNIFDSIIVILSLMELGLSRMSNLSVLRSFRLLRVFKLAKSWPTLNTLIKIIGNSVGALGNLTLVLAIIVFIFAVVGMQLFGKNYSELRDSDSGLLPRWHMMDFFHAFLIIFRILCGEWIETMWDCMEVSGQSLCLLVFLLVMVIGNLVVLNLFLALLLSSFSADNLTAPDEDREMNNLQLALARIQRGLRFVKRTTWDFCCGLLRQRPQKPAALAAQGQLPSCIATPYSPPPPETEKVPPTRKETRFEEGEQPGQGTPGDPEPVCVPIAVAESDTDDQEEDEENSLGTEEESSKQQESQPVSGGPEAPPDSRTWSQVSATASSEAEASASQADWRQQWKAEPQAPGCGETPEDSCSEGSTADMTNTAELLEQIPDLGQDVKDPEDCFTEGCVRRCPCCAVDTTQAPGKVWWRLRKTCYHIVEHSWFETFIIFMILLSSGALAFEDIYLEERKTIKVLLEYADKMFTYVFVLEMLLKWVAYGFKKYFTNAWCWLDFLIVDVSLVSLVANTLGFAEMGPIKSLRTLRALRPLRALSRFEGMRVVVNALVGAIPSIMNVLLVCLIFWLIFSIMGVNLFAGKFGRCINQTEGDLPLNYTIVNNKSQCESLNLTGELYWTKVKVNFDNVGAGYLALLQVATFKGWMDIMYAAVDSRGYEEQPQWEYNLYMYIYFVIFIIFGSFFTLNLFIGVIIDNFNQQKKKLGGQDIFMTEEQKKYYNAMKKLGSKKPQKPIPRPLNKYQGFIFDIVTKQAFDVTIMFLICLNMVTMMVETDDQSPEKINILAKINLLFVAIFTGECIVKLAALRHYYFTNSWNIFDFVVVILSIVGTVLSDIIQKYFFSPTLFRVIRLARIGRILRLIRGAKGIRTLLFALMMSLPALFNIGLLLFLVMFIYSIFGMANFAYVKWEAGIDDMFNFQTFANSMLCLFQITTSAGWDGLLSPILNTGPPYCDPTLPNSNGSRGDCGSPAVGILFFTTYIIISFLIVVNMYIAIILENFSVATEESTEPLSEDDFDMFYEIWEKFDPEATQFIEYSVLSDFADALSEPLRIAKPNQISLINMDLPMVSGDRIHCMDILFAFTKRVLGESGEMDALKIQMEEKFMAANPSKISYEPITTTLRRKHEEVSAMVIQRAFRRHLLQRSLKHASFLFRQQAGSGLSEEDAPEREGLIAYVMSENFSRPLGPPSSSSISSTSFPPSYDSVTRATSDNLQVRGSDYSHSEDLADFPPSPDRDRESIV
T1 sequence (Q07699 19-218 partner): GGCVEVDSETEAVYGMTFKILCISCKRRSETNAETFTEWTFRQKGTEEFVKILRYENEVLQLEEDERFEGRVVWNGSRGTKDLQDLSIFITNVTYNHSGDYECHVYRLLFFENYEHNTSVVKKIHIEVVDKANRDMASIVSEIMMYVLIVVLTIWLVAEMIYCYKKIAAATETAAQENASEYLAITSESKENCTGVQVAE
Source text: whole-cell patch clamp, peak INa block at -20 mV, Hill fit on Nav1.5 (wild type; α-subunit co-transfected with the β1 subunit)

| SMILES | IC50 |
| --- | --- |
| O=C(NCc1ccco1)c1ccc2[nH]c(=O)c(=O)[nH]c2c1 [AR-051, N-(2-furylmethyl)-2,3-dioxo-quinoxaline-6-carboxamide] | 7.61 µM |
| CN(C)[C@@H](CNC(=O)c1ccc2[nH]c(=O)c(=O)[nH]c2c1)c1ccco1 [AR-189, N-[(2S)-2-(dimethylamino)-2-(2-furyl)ethyl]-2,3-dioxo-quinoxaline-6-carboxamide] | 12.6 µM |
| C=CCNS(=O)(=O)c1ccc2[nH]c(=O)[nH]c2c1 [AR-674, N-allyl-2-oxo-benzimidazole-5-sulfonamide] | 6.45 µM |
| COc1cccc(NS(=O)(=O)c2ccc3[nH]c(=O)[nH]c3c2)c1 [AR-802, N-(3-methoxyphenyl)-2-oxo-benzimidazole-5-sulfonamide] | 34.6 µM |
| CCc1ccccc1NS(=O)(=O)c1ccc2[nH]c(=O)[nH]c2c1 [AR-807, N-(2-ethylphenyl)-2-oxo-benzimidazole-5-sulfonamide] | 9.86 µM |
